# Patent US8293768B2, “Organic compounds” (Novartis AG, priority 2006, dated 2012)
row,Structure (SMILES),melting point
1,"Cc1cc(N2CCN(CC3CC3)C2=O)sc1C(=O)NCc1cccnc1 [Example 15.3, 5-(3-(cyclopropylmethyl)-2-oxoimidazolidin-1-yl)-3-methyl-N-(pyridin-3-ylmethyl)thiophene-2-carboxamide]",157 to 159 °C
2,"COC(=O)c1cnc(N2CCNC2=O)s1 [Example 3.1, methyl 2-(2-oxoimidazolidin-1-yl)thiazole-5-carboxylate]",205 to 208 °C
3,"Cc1nc(-n2ccn(Cc3ccc(F)cc3)c2=O)sc1C(=O)NCc1ccccc1 [Example 17, N-benzyl-2-(3-(4-fluorobenzyl)-2-oxo-2,3-dihydro-1H-imidazol-1-yl)-4-methylthiazole-5-carboxamide]",167 to 168 °C
4,"Cc1nc(N2C(=O)CN(c3ccc(F)cc3)C2=O)sc1C(=O)NCc1ccccc1 [Example 2, N-benzyl-2-(3-(4-fluorophenyl)-2,5-dioxoimidazolidin-1-yl)-4-methylthiazole-5-carboxamide]",217 to 219 °C
5,"Cc1nc(-n2cnn(CCNCc3ccc(F)cc3)c2=O)sc1C(=O)NCc1cccnc1 [Example 47, 2-(1-(2-(4-fluorobenzylamino)ethyl)-5-oxo-1H-1,2,4-triazol-4(5H)-yl)-4-methyl-N-(pyridin-3-ylmethyl)thiazole-5-carboxamide]",106 to 107 °C
6,"Cc1nc(-n2cnn(Cc3ccc(F)cc3)c2=O)sc1C(=O)NCc1cc[nH]n1 [Example 21.9, N-((1H-pyrazol-3-yl)methyl)-2-(1-(4-fluorobenzyl)-5-oxo-1H-1,2,4-triazol-4(5H)-yl)-4-methylthiazole-5-carboxamide]",178 to 179 °C
7,"Cc1cc(-n2cnn(CCC3CC3)c2=O)sc1C(=O)NCc1cccnc1 [Example 31.2, 5-(1-(2-cyclopropylethyl)-5-oxo-1H-1,2,4-triazol-4(5H)-yl)-3-methyl-N-(pyridin-3-ylmethyl)thiophene-2-carboxamide]",148 to 150 °C
8,"Cc1cc(N2CCN(Cc3ccc(F)cc3)C2=O)sc1C(=O)NCc1cccnc1 [Example 15.2, 5-(3-(4-fluorobenzyl)-2-oxoimidazolidin-1-yl)-3-methyl-N-(pyridin-3-ylmethyl)thiophene-2-carboxamide]",119 to 120 °C
9,"Cc1nc(-n2cnn(CCOCc3ccc(F)cc3)c2=O)sc1C(=O)NCc1cccnc1 [Example 49, 2-(1-(2-(4-fluorobenzyloxy)ethyl)-5-oxo-1H-1,2,4-triazol-4(5H)-yl)-4-methyl-N-(pyridin-3-ylmethyl)thiazole-5-carboxamide]",235 to 236 °C
10,"Cc1cc(N2CCN(Cc3ccc(C(F)(F)F)cc3)C2=O)sc1C(=O)NCc1cccnc1 [Example 15, 3-methyl-5-(2-oxo-3-(4-(trifluoromethyl)benzyl)imidazolidin-1-yl)-N-(pyridin-3-ylmethyl)thiophene-2-carboxamide]",102 to 104 °C
11,"Cc1cc(-n2cnn(Cc3ccccc3)c2=O)sc1C(=O)NCc1cccnc1 [Example 31.1, 5-(1-benzyl-5-oxo-1H-1,2,4-triazol-4(5H)-yl)-3-methyl-N-(pyridin-3-ylmethyl)thiophene-2-carboxamide]",180 to 181 °C
12,"Cc1nc(-n2ccn(Cc3ccc(F)cc3)c2=O)sc1C(=O)NCc1cccnc1 [Example 17.2, 2-(3-(4-fluorobenzyl)-2-oxo-2,3-dihydro-1H-imidazol-1-yl)-4-methyl-N-(pyridin-3-ylmethyl)thiazole-5-carboxamide]",158 to 159 °C
13,"Cc1nc(N2CCN(Cc3ccccc3)C2=N)sc1C(=O)NCc1ccc(F)cc1 [Example 27.4, 2-(3-benzyl-2-iminoimidazolidin-1-yl)-N-(4-fluorobenzyl)-4-methylthiazole-5-carboxamide]",142 to 144 °C
14,"Cc1cc(N2CCN(CC(O)c3ccccc3)C2=O)sc1C(=O)NCc1cccnc1 (stereo not drawn) [Example 57, 5-(3-(2-hydroxy-2-phenylethyl)-2-oxoimidazolidin-1-yl)-3-methyl-N-(pyridin-3-ylmethyl)thiophene-2-carboxamide]",75 °C (dec.)
15,"Cc1nc(-n2cnn(Cc3ccc(F)cc3)c2=O)sc1C(=O)NCc1cnn(C)c1 [Example 21.10, 2-(1-(4-fluorobenzyl)-5-oxo-1H-1,2,4-triazol-4(5H)-yl)-4-methyl-N-((1-methyl-1H-pyrazol-4-yl)methyl)thiazole-5-carboxamide]",205 to 206 °C
16,"Cc1cc(-n2cnn(Cc3ccc(F)cc3)c2=O)sc1C(=O)NCc1cccnc1 [Example 31, 5-(1-(4-fluorobenzyl)-5-oxo-1H-1,2,4-triazol-4(5H)-yl)-3-methyl-N-(pyridin-3-ylmethyl)thiophene-2-carboxamide]",180 to 182 °C
17,"Cc1nc(N2C(=O)N(Cc3ccc(F)cc3)CC2O)sc1C(=O)NCc1cccnc1 (stereo not drawn) [Example 16.2, 2-(3-(4-fluorobenzyl)-5-hydroxy-2-oxoimidazolidin-1-yl)-4-methyl-N-(pyridin-3-ylmethyl)thiazole-5-carboxamide]",64 to 66 °C
18,"Cc1cc(N2CCN(Cc3ccccc3)C2=O)sc1C(=O)NCc1cccnc1 [Example 15.1, 5-(3-benzyl-2-oxoimidazolidin-1-yl)-3-methyl-N-(pyridin-3-ylmethyl)thiophene-2-carboxamide]",130 to 131 °C
19,"Cc1cc(N2CCN(Cc3ccc(F)cc3)C2=O)sc1C(=O)NCc1cccs1 [Example 55.5, 5-(3-(4-fluorobenzyl)-2-oxoimidazolidin-1-yl)-3-methyl-N-(thiophen-2-ylmethyl)thiophene-2-carboxamide]",128 to 131 °C
20,"Cc1cc(N2CCN(CCc3ccccc3)C2=O)sc1C(=O)NCc1cccnc1 [Example 15.4, 3-methyl-5-(2-oxo-3-phenethylimidazolidin-1-yl)-N-(pyridin-3-ylmethyl)thiophene-2-carboxamide]",95 to 97 °C

# More lines, now with the values ahead:
row,melting point,Structure (SMILES)
1,110 to 113 °C,"Cc1nc(N2CCN(Cc3cccnc3)C2=O)sc1C(=O)NCc1ccccc1 [Example 32.9, N-benzyl-4-methyl-2-(2-oxo-3-(pyridin-3-ylmethyl)imidazolidin-1-yl)thiazole-5-carboxamide]"
2,225 to 227 °C,"CNC(=O)c1sc(N2CCN(Cc3ccc(F)cc3)C2=O)nc1C [Example 32.19, 2-(3-(4-fluorobenzyl)-2-oxoimidazolidin-1-yl)-N,4-dimethylthiazole-5-carboxamide]"
3,212 to 213 °C,"Cc1nc(N2CCN(Cc3ccc(C(F)(F)F)cc3)C2=O)sc1-c1cc[nH]n1 [Example 38, 1-(4-methyl-5-(1H-pyrazol-3-yl)thiazol-2-yl)-3-(4-(trifluoromethyl)-benzyl)imidazolidin-2-one]"
4,105 to 107 °C,"Cc1nc(N2CCN(Cc3ccc4nsnc4c3)C2=O)sc1C(=O)NCc1cccnc1 [Example 32.7, 2-(3-(benzo[c][1,2,5]thiadiazol-5-ylmethyl)-2-oxoimidazolidin-1-yl)-4-methyl-N-(pyridin-3-ylmethyl)thiazole-5-carboxamide]"
5,184 to 186 °C,"Cc1nc(N2CCN(Cc3ccc(OC(F)(F)F)cc3)C2=O)sc1C(=O)NCC1CC1 [Example 8.12, N-(cyclopropylmethyl)-4-methyl-2-(2-oxo-3-(4-(trifluoromethoxy)benzyl)imidazolidin-1-yl)thiazole-5-carboxamide]"
6,49 to 51 °C,"COC(=O)c1cccc(CN2CCN(c3nc(C)c(C(=O)NCc4ccccc4)s3)C2=O)c1 [Example 23.9, methyl 3-((3-(5-(benzylcarbamoyl)-4-methylthiazol-2-yl)-2-oxoimidazolidin-1-yl)methyl)benzoate]"
7,138 to 139 °C,"Cc1ccc(CNC(=O)c2sc(N3CCN(Cc4ccccc4)C3=O)nc2C)o1 [Example 9.10, 2-(3-benzyl-2-oxoimidazolidin-1-yl)-4-methyl-N-((5-methylfuran-2-yl)methyl)thiazole-5-carboxamide]"
8,122 to 124 °C,"COC(=O)c1cccc(CN2CCN(c3nc(C)c(C(C)=O)s3)C2=O)c1 [Example 5.17, methyl 3-((3-(5-acetyl-4-methylthiazol-2-yl)-2-oxoimidazolidin-1-yl)methyl)benzoate]"
9,138 to 140 °C,"Cc1nc(N2CCN(Cc3ccccc3C(F)(F)F)C2=O)sc1C(=O)NCc1ccccc1 [Example 23.1, N-benzyl-4-methyl-2-(2-oxo-3-(2-(trifluoromethyl)benzyl)imidazolidin-1-yl)thiazole-5-carboxamide]"
10,201 to 203 °C,"Cc1nc(N2CCN(Cc3ccc(F)cc3)C2=O)sc1C(N)=O [Example 32.18, 2-(3-(4-fluorobenzyl)-2-oxoimidazolidin-1-yl)-4-methylthiazole-5-carboxamide]"
11,197 to 198 °C,"Cc1csc(NC(=O)c2ccc(CN3CCN(c4nc(C)cs4)C3=O)cc2)n1 [Example 8.10, N-(4-methylthiazol-2-yl)-4-((3-(4-methylthiazol-2-yl)-2-oxoimidazolidin-1-yl)methyl)benzamide]"
12,146 to 149 °C,"Cc1nc(N2CCN(Cc3ccc(F)cc3)C2=O)sc1C(=O)NCc1ccncc1 [Example 32.23, 2-(3-(4-fluorobenzyl)-2-oxoimidazolidin-1-yl)-4-methyl-N-(pyridin-4-ylmethyl)thiazole-5-carboxamide]"
13,174 to 175 °C,"COC(=O)c1ccc(CN2CCN(c3nc(C)c(C(C)=O)s3)C2=O)cc1 [Example 5.11, methyl 4-((3-(5-acetyl-4-methylthiazol-2-yl)-2-oxoimidazolidin-1-yl)methyl)benzoate]"
14,120 °C (dec.),"Cc1cc(N2CCN(Cc3ccc(C(=O)O)cc3)C2=O)sc1C(=O)NCc1cccnc1 [Example 56, 4-((3-(4-methyl-5-(pyridin-3-ylmethylcarbamoyl)thiophen-2-yl)-2-oxoimidazolidin-1-yl)methyl)benzoic acid]"
15,102 to 103 °C,"CCOC(=O)c1sc(N2C[C@@H](Cc3ccccc3)NC2=O)nc1C [Example 11, (R)-ethyl 2-(4-benzyl-2-oxoimidazolidin-1-yl)-4-methylthiazole-5-carboxylate]"
16,139 to 141 °C,"Cc1nc(N2CCN(Cc3nc(C)n(-c4ccccc4)n3)C2=O)sc1C(=O)NCc1ccccc1 [Example 23.5, N-benzyl-4-methyl-2-(3-((5-methyl-1-phenyl-1H-1,2,4-triazol-3-yl)methyl)-2-oxoimidazolidin-1-yl)thiazole-5-carboxamide]"
